# Where a name gives a salt, the structure may show the parent alone.
# Experiments:
# muscarinic receptors = type: binding, rabbit (New Zealand White); conditions: at a concentration of 1.0 × 10^-5 M; 0.1 nM [3H]QNB; 37° C., 60 min; pH 7.4
# [1] = tested on: gastrointestinal tract, biliary tract, ureter and uterus; conditions: in vivo; cited from earlier work
# [2] = in vivo; cited from earlier work
SMILES,% inhibition of ^3 H[QNB] binding (muscarinic receptors) [%],decrease spasm [1],atropinic side effects [2]
CCN(CC)CCSC(=O)c1ccc(C(C)(C)C)cc1 [4-t-butyl-benzoyl-thio-S-(2-diethylaminoethyl)-ester.HCl],21,,
CCN(CC)CCSC(=O)C(c1ccccc1)c1ccccc1 [Thiphenamil hydrochloride],,"decrease spasm of the gastrointestinal tract, biliary tract, ureter and uterus","without producing characteristic atropinic side effects on salivary and sweat glands, GI glands, the eye or the cardiovascular system"
